Literature values as cited in PubChem BioAssay AID1259409 (Chemical Carcinogenesis Research Information System (CCRIS), 2018).

Test system: rodent chemically induced tumor inhibition, incidence and multiplicity
Test: CCRIS tumor inhibitor studies
Conditions: Route [Inhibitor]: ORAL

Compound: O=[Se](O)O
- tumour outcome (control, treated, inhibition, significance) (Carcinogen: N-METHYL-N-NITROSOUREA, 684-93-5, Dose [Inhibitor]: 5 MG IN DIET DAILY STARTING AT AGE 5 WK 2 WK PRIOR TO FIRST CARCINOGEN TREATMENT AND CONTINUING FOR DURATION OF STUDY (S, Species: HAMSTER, Strain/Sex: SYRIAN/MALE, Target Tissue: Type of Lesion: TRACHEA: NEOPLASM, Dose [Carcinogen]: 0.5% SOLUTION (PH 5) 1/WK FOR 12 WK, Promoter: NONE USED): 11/34 (32%), 11/31 (35%), -9%, not significant
- tumour outcome (control, treated, inhibition, significance) (Carcinogen: N-METHYL-N-NITROSOUREA, 684-93-5, Dose [Inhibitor]: 5 MG/KG IN DIET DAILY STARTING 7 D AFTER CARCINOGEN TREATMENT AND CONTINUING FOR DURATION OF STUDY (STUDY DURATION: 90 D, Species: RAT, Strain/Sex: SPRAGUE-DAWLEY/FEMALE, Target Tissue: Type of Lesion: MAMMARY GLAND: ADENOCARCINOMA, Dose [Carcinogen]: 50 MG/KG BW IN 0.9% SALINE ONCE AT 50 D OF AGE, Promoter: NONE): 95%, 85%, 11%, not calculated
- tumour outcome (control, treated, inhibition, significance) (Carcinogen: N-NITROSOBIS(2-OXOPROPYL)AMINE, 60599-38-4, Dose [Inhibitor]: 0, 4 PPM IN DRINKING WATER BEGINNING POST CARCINOGEN TREATMENT AND CONTINUING FOR 37 WK (STUDY DURATION: 40 WK), Species: HAMSTER, Strain/Sex: SYRIAN/FEMALE, Target Tissue: Type of Lesion: PANCREAS: ADENOCARCINOMA, Dose [Carcinogen]: 10 MG/KG 1/WK FOR 3 WK, Promoter: NONE USED): 11/28 (39%), 9/30 (30%), 23%, not calculated
- tumour outcome (control, treated, inhibition, significance) (Carcinogen: NITROSOMETHYL-3-CARBOXYPROPYLAMINE, 61445-55-4, Dose [Inhibitor]: 0, 0.35 PPM IN DIET BEGINNING 1 WK PRIOR TO CARCINOGEN DOSE AND CONTINUED FOR DURATION OF STUDY (STUDY DURATION: LIFETIM, Species: RAT, Strain/Sex: F344/FEMALE, Target Tissue: Type of Lesion: BLADDER: TUMORS, Dose [Carcinogen]: 20 ML OF A 600 MG/L SOLUTION IN DRINKING WATER 5 D/WK FOR 28 WK, Promoter: NONE USED): 18/20 (90%), 18/20 (90%), 0%, not significant
- tumour outcome (control, treated, inhibition, significance) (Carcinogen: NITROSOMETHYL-3-CARBOXYPROPYLAMINE, 61445-55-4, Dose [Inhibitor]: 0, 0.7 PPM IN DIET BEGINNING 1 WK PRIOR TO CARCINOGEN DOSE AND CONTINUED FOR DURATION OF STUDY (STUDY DURATION: LIFETIME, Species: RAT, Strain/Sex: F344/FEMALE, Target Tissue: Type of Lesion: BLADDER: TUMORS, Dose [Carcinogen]: 20 ML OF A 600 MG/L SOLUTION IN DRINKING WATER 5 D/WK FOR 28 WK, Promoter: NONE USED): 18/20 (90%), 20/20 (100%), -11%, not significant
- tumour outcome (control, treated, inhibition, significance) (Carcinogen: NITROSOMETHYL-3-CARBOXYPROPYLAMINE, 61445-55-4, Dose [Inhibitor]: 0, 1.4 PPM IN DIET BEGINNING 1 WK PRIOR TO CARCINOGEN DOSE AND CONTINUED FOR DURATION OF STUDY (STUDY DURATION: LIFETIME, Species: RAT, Strain/Sex: F344/FEMALE, Target Tissue: Type of Lesion: BLADDER: TUMORS, Dose [Carcinogen]: 20 ML OF A 600 MG/L SOLUTION IN DRINKING WATER 5 D/WK FOR 28 WK, Promoter: NONE USED): 18/20 (90%), 20/20 (100%), -11%, not significant
- tumour outcome (control, treated, inhibition, significance) (Carcinogen: NITROSOMETHYL-3-CARBOXYPROPYLAMINE, 61445-55-4, Dose [Inhibitor]: 0, 2.1 PPM IN DIET BEGINNING 1 WK PRIOR TO CARCINOGEN DOSE AND CONTINUED FOR DURATION OF STUDY (STUDY DURATION: LIFETIME, Species: RAT, Strain/Sex: F344/FEMALE, Target Tissue: Type of Lesion: BLADDER: TUMORS, Dose [Carcinogen]: 20 ML OF A 600 MG/L SOLUTION IN DRINKING WATER 5 D/WK FOR 28 WK, Promoter: NONE USED): 18/20 (90%), 17/20 (85%), 6%, not significant
- tumour outcome (control, treated, inhibition, significance) (Carcinogen: NITROSOMETHYLCYCLOHEXYLAMINE, 5432-28-0, Dose [Inhibitor]: 0, 0.35 PPM IN DIET BEGINNING 1 WK PRIOR TO CARCINOGEN DOSE AND CONTINUED FOR DURATION OF STUDY (STUDY DURATION: LIFETIM, Species: RAT, Strain/Sex: F344/FEMALE, Target Tissue: Type of Lesion: ESOPHAGUS: TUMORS, Dose [Carcinogen]: 20 ML OF A 5 MG/L SOLUTION IN DRINKING WATER 5 D/WK FOR 28 WK, Promoter: NONE USED): 17/20 (85%), 17/20 (85%), 0%, not significant
- tumour outcome (control, treated, inhibition, significance) (Carcinogen: NITROSOMETHYLCYCLOHEXYLAMINE, 5432-28-0, Dose [Inhibitor]: 0, 0.7 PPM IN DIET BEGINNING 1 WK PRIOR TO CARCINOGEN DOSE AND CONTINUED FOR DURATION OF STUDY (STUDY DURATION: LIFETIME, Species: RAT, Strain/Sex: F344/FEMALE, Target Tissue: Type of Lesion: ESOPHAGUS: TUMORS, Dose [Carcinogen]: 20 ML OF A 5 MG/L SOLUTION IN DRINKING WATER 5 D/WK FOR 28 WK, Promoter: NONE USED): 17/20 (85%), 17/20 (85%), 0%
- tumour outcome (control, treated, inhibition, significance) (Carcinogen: NITROSOMETHYLCYCLOHEXYLAMINE, 5432-28-0, Dose [Inhibitor]: 0, 1.4 PPM IN DIET BEGINNING 1 WK PRIOR TO CARCINOGEN DOSE AND CONTINUED FOR DURATION OF STUDY (STUDY DURATION: LIFETIME, Species: RAT, Strain/Sex: F344/FEMALE, Target Tissue: Type of Lesion: ESOPHAGUS: TUMORS, Dose [Carcinogen]: 20 ML OF A 5 MG/L SOLUTION IN DRINKING WATER 5 D/WK FOR 28 WK, Promoter: NONE USED): 17/20 (85%), 16/20 (80%), 6%, not significant
- tumour outcome (control, treated, inhibition, significance) (Carcinogen: NITROSOMETHYLCYCLOHEXYLAMINE, 5432-28-0, Dose [Inhibitor]: 0, 2.1 PPM IN DIET BEGINNING 1 WK PRIOR TO CARCINOGEN DOSE AND CONTINUED FOR DURATION OF STUDY (STUDY DURATION: LIFETIME, Species: RAT, Strain/Sex: F344/FEMALE, Target Tissue: Type of Lesion: ESOPHAGUS: TUMORS, Dose [Carcinogen]: 20 ML OF A 5 MG/L SOLUTION IN DRINKING WATER 5 D/WK FOR 28 WK, Promoter: NONE USED): 17/20 (85%), 18/20 (90%), -6%, not significant
- tumour outcome (control, treated, inhibition, significance) (Carcinogen: NONE USED, Dose [Inhibitor]: 0.5 PPM IN DIET DAILY STARTING AT AGE 6 WK AND CONTINUING FOR DURATION OF STUDY (STUDY DURATION: 13 MO), Species: MOUSE, Strain/Sex: BALB/FEMALE, Target Tissue: Type of Lesion: MAMMARY GLAND: ADENOCARCINOMA, Promoter: NONE USED): 15/30 (50%), 8/30 (27%), 46%, p<0.05
- tumour outcome (control, treated, inhibition, significance) (Carcinogen: NONE USED, Dose [Inhibitor]: 2 PPM IN DIET DAILY STARTING AT AGE 6 WK AND CONTINUING FOR DURATION OF STUDY (STUDY DURATION: 13 MO), Species: MOUSE, Strain/Sex: BALB/FEMALE, Target Tissue: Type of Lesion: MAMMARY GLAND: ADENOCARCINOMA, Promoter: NONE USED): 15/30 (50%), 6/30 (20%), 60%, p<0.05
- outcome (Carcinogen: UV-B IRRADIATION, Dose [Inhibitor]: 0, 0.5 MG/KG DIET FOR 29 WK BEGINNING 1 WK PRIOR TO CARCINOGEN TREATMENT (STUDY DURATION: 29 WK), Species: MOUSE, Strain/Sex: SKH:HR-1/FEMALE, Target Tissue: Type of Lesion: SKIN: TUMOR, Dose [Carcinogen]: 90 MJ/CM2 3/WK FOR 20 WK, Promoter: NONE USED): 29, 17, 41%, p<0.05
- tumour outcome (control, treated, inhibition, significance) (Dose [Inhibitor]: 0, 3 PPM IN DRINKING WATER AD LIBITUM FOR DURATION OF STUDY (STUDY DURATION: 79 WK), Species: RAT, Strain/Sex: WISTAR/MALE, Target Tissue: Type of Lesion: LIVER: CARCINOMA, Dose [Carcinogen]: 126 UG/WK IN DRINKING WATER FOR 27 WK, Promoter: NONE USED): 61%, 0%, 100%, not calculated
- tumour outcome (control, treated, inhibition, significance) (Dose [Inhibitor]: 0, 6 PPM IN DRINKING WATER AD LIBITUM FOR DURATION OF STUDY (STUDY DURATION: 79 WK), Species: RAT, Strain/Sex: WISTAR/MALE, Target Tissue: Type of Lesion: LIVER: CARCINOMA, Dose [Carcinogen]: 126 UG/WK IN DRINKING WATER FOR 27 WK, Promoter: NONE USED): 61%, 0%, 100%, not calculated
